Results on one molecule are retold here after patent publication US20220233469A1, “METHODS, COMPOSITIONS AND DEVICES FOR TREATING NEUROINFLAMMATORY CONDITIONS” (ALYRA BIOTECH PTY LTD, priority 2019, published 2022).

“Also recorded” adds a separate entry of the source.

The subject of one assay is HEK293/Null. The assay is described as follows: RIG-I-/MDA-5- control cell line HEK293/Null stimulated with hIFNα. The conditions noted are these: stimulated with recombinant hIFNα at 100 IU/mL. The class given is cell-based, human. As for the experimental part: RIG-I and MDA-5 stimulation were tested by assessing IRF3 activation in HEK293 cells expressing human RIG-I or MDA-5 genes. The activity of the test articles was tested on human RIG-I and MDA-5 expressing cells as a potential agonist or antagonist. The test articles were evaluated at one concentration and compared to control ligands. This step was performed in triplicate. The results are provided as Relative Luminescence Units (RLUs).
RIG-I^−/MDA-5^− Cell Lines: HEK293/Null: Control for human RIG-I and MDA-5 Poly(I:C)HMW/LyoVec at 1 μg/mL. Antagonist: 500 ng/mL 5′ppp-dsRNA/LyoVec at 1 μg/mL. Antagonist: 500 ng/mL hIFNα at 1000 IU/mL. Antagonist: 100 IU/mL.
In a 96-well plate (200 μL total volume) containing the appropriate cells (25,000-50,000 cells/well), 20 μL of the test article or of the positive control ligand was added to the wells. For the antagonist assay, the test article was incubated with the cells, at 37° C. with 5% CO2, for 30 minutes prior to the addition of the positive control ligand to the wells. After 20 hour incubation, activation of the IRF pathway was monitored using a luciferase detection assay. Luciferase activity was assayed in triplicate from the supernatant of the induced cells, and the relative luminescence units (RLUs) are detected by a Promega GloMax Luminometer.

The conditions of assay [1]: used orally in clinical practice; cited from earlier work.
The subject of a further assay is dorsal horn microglia. As to the kind of experiment: Activation of dorsal horn microglia (Iba1 immunofluorescence) after intrauterine LPS in mice. Format: in vivo, mouse. The following applies: intrauterine, given with LPS (100 ug/kg) once per estrus cycle over three cycles, Amitriptyline 28 ug/kg, TAK-242 36 ug/kg. The source says:
(§1) We first recognised that neuroinflammatory conditions of the nervous system may be, at least in part, due to activation of the innate immune system within the uterus resulting in activation of glial cells in the dorsal horn of the spinal cord. To model this in mice, a study was undertaken administering LPS (lipopolysaccharide), a potent immune activator, to the uterus of mice once per estrus cycle over three cycles.
(§2) Studies were also undertaken to investigate whether a small dose of amitriptyline, an inhibitor of the pattern recognition receptors TLR, NOD, CLR, RIG-1 and MDA-5, administered with LPS within the uterus could prevent LPS-induced activation of spinal glial cells. To confirm that the amitriptyline was acting, at least in part, by blocking TLRs, an investigation was also conducted on mice given a small dose of pure TLR4 blocker-TAK-242—with LPS.
(§3) The Nonsurgical Embryo Transfer Device (Paratech, USA) was used to allow insertion of fluid into the uterus with brief, mild discomfort to the mouse, and no need for anaesthesia. Following three estrus cycles, glial activation in the dorsal horn of the spinal cord was measured using immunofluorescence. Activation of dorsal horn astrocytes was assessed using GFAP. Activation of dorsal horn microglia was assessed using Iba1. We compared the activation of spinal glia in mice with intrauterine administration of saline only, saline and LPS (100 ug/kg), saline LPS (100 ug/kg) and Amitriptyline (28 ug/kg), and saline LPS (100 ug/kg) and TAK-242 (36 ug/kg).
(§4) The spinal cord was assessed using immunohistochemistry techniques across levels T10, T11, T12, T13, L1, L2, L3, L4, L5, L6, S1 and S2 where T represents the thoracic segment of the spinal cord, L represents the lumbar segment of the spinal cord and S represents the sacral segment of the spinal cord. The regions of interest in the dorsal horn include Laminae I, II, III and IV. Changes in spinal glial reactivity are causally linked to all known models of neuroinflammatory medical conditions.

The test system of the next assay is dorsal horn astrocytes. As to the kind of experiment: Activation of dorsal horn astrocytes (GFAP immunofluorescence) after intrauterine LPS in mice. The class given is in vivo, mouse. The conditions noted are these: for LPS-induced activation of spinal astrocytes (GFAP staining, dorsal horn): intrauterine, given with LPS (100 ug/kg) once per estrus cycle over three cycles, Amitriptyline 28 ug/kg, TAK-242 36 ug/kg.
Description: as §1, §2, §3, §4

Assay [2] is described as follows: Facial Grimace Score after intrauterine LPS in mice. Format: in vivo, mouse.
In another assay the test system is HEK293/Null1. As to the kind of experiment: TLR-/NLR- control cell line HEK293/Null1 stimulated with TNFa. The class given is cell-based, human. The conditions noted are these: stimulated with TNFa at 10 ng/mL. As for the experimental part: (§5) Toll-Like Receptor (TLR), NOD-Like Receptor (NLR) and C-Type Lectin Receptor (CLR) stimulation were tested by assessing NF-κB activation in HEK293 cells expressing a given TLR, NLR or CLR. The activity of the test articles was tested at one concentration and compared to control ligands. These steps were performed in triplicate. In a 96-well plate (200 μL total volume) containing the appropriate cells (50,000-75,000 cells/well), 20 μL of the test article or the positive control ligand was added to the wells. For the antagonist assay, the test article was incubated with the cells, at 37° C. with 5% CO2, for 30 minutes prior to the addition of the positive control ligand to the wells. The media added to the wells was designed for the detection of NF-κB induced SEAP expression. After a 16-24 hr incubation the optical density (OD) was read at 650 nm on a Molecular Devices SpectraMax 340PC absorbance detector.

Another assay relates to spinal glial cells. The assay is described as follows: Spinal glial activation after intrauterine LPS in mice. Format: in vivo, mouse. The following applies: intrauterine co-administration with LPS (100 ug/kg), Amitriptyline 28 ug/kg, TAK-242 36 ug/kg.
Description: as §1, §2, §3, §4

Another assay has as its system HEK293/Null2. As to the kind of experiment: TLR-/NLR- control cell line HEK293/Null2 stimulated with TNFa. The class given is cell-based, human. The following applies: stimulated with TNFa at 10 ng/mL. As for the experimental part: as §5

As for `CN(C)CCC=C1c2ccccc2CCc2ccccc21` [Amitriptyline], the “effect on control cell line HEK293/Null” value in the assay on HEK293/Null was “inhibitory effect”. The clinical use result in assay [1] is “has been used successfully to treat PMS and depression”. For the same molecule, the “LPS-induced activation of spinal microglia (Iba1 staining, dorsal horn)” value in the assay on dorsal horn microglia was “blocked the impact of intrauterine LPS at multiple levels of the spinal cord and reduced microglial reactivity to basal levels; also recorded: appears to reduce microglial reactivity to basal levels”; in the assay on dorsal horn microglia (listed as amitriptyline) it was “prevented LPS-induced activation of spinal astrocytes and microglia”. Moreover, the “LPS-induced activation of spinal astrocytes (GFAP staining, dorsal horn)” value with dorsal horn astrocytes was “blocks the impact of intrauterine LPS at multiple levels of the spinal cord and appears to reduce astrocytic reactivity to below basal levels”; with dorsal horn astrocytes (listed as amitriptyline), “prevented LPS-induced activation of spinal astrocytes and microglia; also recorded: reduced spinal activation of astrocytes below baseline levels; also recorded: blocked the impact of intrauterine LPS at multiple levels of the spinal cord and reduced astrocytic reactivity to below basal levels”. Moreover, in the assay on dorsal horn astrocytes (level of T12, intrauterine LPS with Amitriptyline or TAK-242 vs LPS, p=0.0002), the “integrated density of GFAP staining (activated astrocytes within the dorsal horn)” value is on record as “significantly reduce LPS effect”. Moreover, the “proportion of mice displaying severe grimace” value in assay [2] (intrauterine LPS with amitriptyline vs LPS only, categorical assessment, p=0.043) is given as “significantly reduced severe grimace behaviour”. In assay [2] (mice, 24 hours following the final LPS stimulation, intrauterine LPS with Amitriptyline or TAK242), the “Facial Grimace Score” value is “reduced these scores”. For the same molecule, the “effect on control cell line HEK293/Null1” value with HEK293/Null1 is listed as “slight inhibitory effect”. For the same molecule, the “LPS-induced spinal glial activation” value in the assay with spinal glial cells is listed as “showed additional activity reducing spinal glial activation above TAK-242 alone”; in the assay on spinal glial cells (listed as amitriptyline), “effect was prevented”. Besides, the “effect on control cell line HEK293/Null2” value with HEK293/Null2 is on record as “slight inhibitory effect”.
